Drawing on patent publication US20240398805A1, “QUINAZOLINE DERIVED COMPOUNDS AS EGFR INHIBITORS AND THEIR USES THEREOF” (ACCUTAR BIOTECHNOLOGY INC., priority 2021, published 2024), this text covers GI50 for 15 compounds.

Format in all cases: cell-based
Assay [1] has as its system HCC827-YVMA cells (human ERBB2 exon20 insertion mutant A775_G776ins YVMA). As to the kind of experiment: Cell growth inhibition (CellTiter-Glo, 3 days) in HCC827-YVMA. The note with it: 72 h, 3 days after administration. The text has this: (§1) 1. Preparation of HCC827-SVD, HCC827-ASV and HCC827-YVMA Cell Lines
(§2) HCC827-ASV and HCC827-YVMA cell lines were generated in the similar approach as HCC827-SVD except that HCC827 cells (ATCC) were first transduced with lentiviral particles expressing codon-optimized human EGFR exon 20 insertion mutant A769_D770insASV and human ERBB2 exon20 insertion mutant A775_G776ins YVMA, respectively.
(§3) 2. Cell Growth Inhibition for HCC827, HCC827-SVD, HCC827-ASV, HCC827-YVMA and A431.
(§4) HCC827(ATCC), HCC827-SVD, HCC827-ASV, HCC827-YVMA were seeded in 96-well plates at 5000 cells/well in 90 μl of RPMI growth medium containing 10% FBS and 1% Penicillin Streptomycin. A431 (ATCC) cells were seed in 96-well plates at 5000 cells/well in 90 μl of DMEM growth medium containing 10% FBS and 1% Penicillin Streptomycin. Cells were incubated at 3700 overnight. The following day, the test compound was administered to the cells by using 1 Ox compound stock solution prepared in growth medium at various concentrations. After administration of the compound, cells were then incubated at 3700 for 3 days. Before CeIlTiter-Glo assay, the plates were equilibrated at room temperature for approximately 10 minutes. 100 ul of CelTiter-Glo® Reagent (Promega) was added to each well. The plates were then incubated at room temperature for 10 minutes and luminescence was recorded by EnSpire plate reader (PerkinElmer).

The test system of assay [2] is HCC827-ASV cells (human EGFR exon 20 insertion mutant A769_D770insASV). As to the kind of experiment: Cell growth inhibition (CellTiter-Glo, 3 days) in HCC827-ASV. The note with it: 72 h, 3 days after administration.
Description: as §1, §2, §3, §4

The test system of assay [3] is HCC827 cells. Description: Cell growth inhibition (CellTiter-Glo, 3 days) in HCC827. The note with it: Homo sapiens, 72 h, 3 days after administration. On the procedure:
as §3, §4

In assay [4] the test system is HCC827-SVD cells (human EGFR exon 20 insertion mutant D770_N771 insSVD). Description: Cell growth inhibition (CellTiter-Glo, 3 days) in HCC827-SVD. The note with it: 72 h, 3 days after administration. The procedure:
as §1
HCC827-SVD cell line were generated by first transducing HCC827 cells (ATCC) with lentiviral particles expressing codon-optimized human EGFR exon 20 insertion mutant D770_N771 insSVD, and then selecting under 5 μg/ml purimycin treatment for a week.
The resulting cells were further transduced with lentiviral particles carrying EGFR sgRNA and CAS9 to knockout the endogenous alleles of EGFR, and then selected under 500 μg/ml hygromycin B treatment for two weeks. Single clone was subsequently generated by limiting dilution approach. Endogenous EGFR knockout was confirmed by Sanger sequencing of cell genomic DNA and expression of exogenous mutant EGFR was verified by Western blot analysis.
as §3, §4

Assay [5] has as its system A431 cells. Description: Cell growth inhibition (CellTiter-Glo, 3 days) in A431. The note with it: Homo sapiens, A-431, 72 h, 3 days after administration. The procedure: as §3, §4

Each structure is given as a SMILES string. Bounds are passed on as bounds.

Take `C=CC(=O)N1CCC(Nc2cc3c(Nc4ccc(Oc5cc(-c6ccc(C)nc6)ccn5)cc4F)ncnc3cc2OC)CC1` [Compound 46, 1-[4-({4-[(2-fluoro-4-{[4-(6-methylpyridin-3-yl)pyridin-2-yl]oxy}phenyl)amino]-7-methoxyquinazolin-6-yl}amino)piperidin-1-yl]prop-2-en-1-one]: the GI50 was under 0.03 µM in assay [1]; 0.06 to 0.1 µM in assay [2]; 0.1 to 0.3 µM in assay [3]; 0.03 to 0.06 µM in assay [4]; at least 1 µM in assay [5].

For `CC#CC(=O)N1CCC(Nc2cc3c(Nc4ccc(Oc5ccn(-c6cnc(C)c(F)c6)n5)cc4F)ncnc3cc2OC)CC1` [Example 24, 1-(4-((4-((2-fluoro-4-((1-(5-fluoro-6-methylpyridin-3-yl)-1H-pyrazol-3-yl)oxy)phenyl)amino)-7-methoxyquinazolin-6-yl)amino)piperidin-1-yl)but-2-yn-1-one], the GI50 in assay [1], in assay [2], in assay [3], in assay [4] and in assay [5] was at least 1 µM each time.

With `C=CC(=O)N1CCC(Nc2cc3c(Nc4ccc(Oc5ccnc(N6CC(F)(F)C(F)(F)C6)c5)cc4F)ncnc3cc2OC)CC1` [Example 261, 1-(4-((4-((2-fluoro-4-((2-(3,3,4,4-tetrafluoropyrrolidin-1-yl)pyridin-4-yl)oxy)phenyl)amino)-7-methoxyquinazolin-6-yl)amino)piperidin-1-yl)prop-2-en-1-one], the GI50 in assay [1] lay within 0.03 to 0.06 µM; in assay [2], 0.03 to 0.06 µM; in assay [3], 0.1 to 0.3 µM; in assay [4] it was 0.03 to 0.06 µM; in assay [5], 0.6 to 1 µM.

With `C=CC(=O)N1CCC(Nc2cc3c(Nc4ccc(Oc5ccnc(N6CCN(C)CC6)c5)cc4)ncnc3cc2OC)CC1` [Example 231, 1-(4-((7-methoxy-4-((4-((2-(4-methylpiperazin-1-yl)pyridin-4-yl)oxy)phenyl)amino)quinazolin-6-yl)amino)piperidin-1-yl)prop-2-en-1-one], the GI50 in assay [1] was 0.1 to 0.3 µM; in assay [2] it was 0.1 to 0.3 µM; in assay [3] it was at least 1 µM; in assay [4] it was 0.3 to 0.6 µM; in assay [5], at least 1 µM.

As for `C=CC(=O)N1CCC(Nc2cc3c(Nc4ccc(Oc5ccn(-c6ccc(OC)cn6)n5)cc4F)ncnc3cc2OC)CC1` [Example 59, 1-(4-((4-((2-fluoro-4-((1-(5-methoxypyridin-2-yl)-1H-pyrazol-3-yl)oxy)phenyl)amino)-7-methoxyquinazolin-6-yl)amino)piperidin-1-yl)prop-2-en-1-one], the GI50 in assay [1] lay in the range of 0.03 to 0.06 µM; in assay [2] it was 0.03 to 0.06 µM; in assay [3], 0.06 to 0.1 µM; in assay [4], 0.06 to 0.1 µM; in assay [5], 0.1 to 0.3 µM.

`C=CC(=O)N1CCC(Nc2cc3c(Nc4ccc(OCc5ccccn5)c(Cl)c4)ncnc3cc2OCCN(C)C)CC1` [Example 96, 1-(4-((4-((3-chloro-4-(pyridin-2-ylmethoxy)phenyl)amino)-7-(2-(dimethylamino)ethoxy)quinazolin-6-yl)amino)piperidin-1-yl)prop-2-en-1-one]: the 50% growth inhibitory concentration (GI50) in assay [1] fell in the range of 0.1 to 0.3 µM; in assay [2] it was 0.1 to 0.3 µM; in assay [3] it was 0.06 to 0.1 µM; in assay [4] it was 0.1 to 0.3 µM; in assay [5], 0.3 to 0.6 µM.

As to `C=CC(=O)N1CCC(Nc2cc3c(Nc4ccc(Oc5ccnc(NC6CCOCC6)c5)cc4F)ncnc3cc2OC)CC1` [Compound 185, 1-(4-((4-((2-fluoro-4-((2-((tetrahydro-2H-pyran-4-yl)amino)pyridin-4-yl)oxy)phenyl)amino)-7-methoxyquinazolin-6-yl)amino)piperidin-1-yl)prop-2-en-1-one], the 50% growth inhibitory concentration (GI50) in assay [1] was under 0.03 µM; in assay [2], under 0.03 µM; in assay [3], under 0.03 µM; in assay [4] it was under 0.03 µM; in assay [5], 0.1 to 0.3 µM.

For the compound `C=CC(=O)N1CCC(Nc2cc3c(Nc4ccc(Oc5ccnc(N6C[C@@H](C)N[C@@H](C)C6)c5)cc4F)ncnc3cc2OC)CC1` [Example 154, 1-(4-((4-((4-((2-((3R,5S)-3,5-dimethylpiperazin-1-yl)pyridin-4-yl)oxy)-2-fluorophenyl)amino)-7-methoxyquinazolin-6-yl)amino)piperidin-1-yl)prop-2-en-1-one], the GI50 was 0.3 to 0.6 µM in assay [1]; 0.1 to 0.3 µM in assay [2]; at least 1 µM in assay [3]; 0.3 to 0.6 µM in assay [4]; at least 1 µM in assay [5].

Turning to `C=CC(=O)N1CCC(Nc2cc3c(Nc4ccc(Oc5ccn(-c6cnc(C)cn6)n5)cc4F)ncnc3cc2OC)CC1` [Example 33, 1-(4-((4-((2-fluoro-4-((1-(5-methylpyrazin-2-yl)-1H-pyrazol-3-yl)oxy)phenyl)amino)-7-methoxyquinazolin-6-yl)amino)piperidin-1-yl)prop-2-en-1-one], the GI50 is 0.1 to 0.3 µM in assay [1]; 0.06 to 0.1 µM in assay [2]; 0.3 to 0.6 µM in assay [3]; 0.1 to 0.3 µM in assay [4]; 0.1 to 0.3 µM in assay [5].

As to `C=CC(=O)N1CCC(Nc2cc3c(Nc4ccc(Oc5nc(-c6cnc(OCC)nc6)cs5)cc4F)ncnc3cc2OC)CC1` [Example 28, 1-(4-((4-((4-((4-(2-ethoxypyrimidin-5-yl)thiazol-2-yl)oxy)-2-fluorophenyl)amino)-7-methoxyquinazolin-6-yl)amino)piperidin-1-yl)prop-2-en-1-one], the GI50 in assay [1] was 0.03 to 0.06 µM; in assay [2], under 0.03 µM; in assay [3], 0.1 to 0.3 µM; in assay [4], 0.03 to 0.06 µM; in assay [5], 0.1 to 0.3 µM.

As for `C=CC(=O)N1CCC(Nc2cc3c(Nc4ccc(Oc5ccnc(NC6CCC6)c5)cc4F)ncnc3cc2OC)CC1` [Compound 243, 1-(4-((4-((4-((2-(cyclobutylamino)pyridin-4-yl)oxy)-2-fluorophenyl)amino)-7-methoxyquinazolin-6-yl)amino)piperidin-1-yl)prop-2-en-1-one], the GI50 in assay [1] was under 0.03 µM; in assay [2], under 0.03 µM; in assay [3], 0.03 to 0.06 µM; in assay [4], under 0.03 µM; in assay [5], 0.3 to 0.6 µM.

`C=CC(=O)N1CCC(Nc2cc3c(Nc4ccc(Oc5ccnc(N6CCCOCC6)c5)cc4F)ncnc3cc2OC)CC1` [Example 106, 1-(4-((4-((4-((2-(1,4-oxazepan-4-yl)pyridin-4-yl)oxy)-2-fluorophenyl)amino)-7-methoxyquinazolin-6-yl)amino)piperidin-1-yl)prop-2-en-1-one]: the concentration for 50% growth inhibition (GI50) is under 0.03 µM in assay [1]; under 0.03 µM in assay [2]; 0.1 to 0.3 µM in assay [3]; under 0.03 µM in assay [4]; at least 1 µM in assay [5].

Consider `C=CC(=O)N1CCC(Nc2cc3c(Nc4ccc(Oc5ccnc(N6C[C@H](C)O[C@@H](C)C6)c5)cc4F)ncnc3cc2OC)CC1` [Example 105, 1-(4-((4-((4-((2-((2S,6S)-2,6-dimethylmorpholino)pyridin-4-yl)oxy)-2-fluorophenyl)amino)-7-methoxyquinazolin-6-yl)amino)piperidin-1-yl)prop-2-en-1-one], for which the GI50 in assay [1] was under 0.03 µM; in assay [2], under 0.03 µM; in assay [3], 0.3 to 0.6 µM; in assay [4], under 0.03 µM; in assay [5], at least 1 µM.

As for `C=CC(=O)N1CCC(Nc2cc3c(Nc4ccc(Oc5ccnc(-c6cccnc6)c5)cc4F)ncnc3cc2OC)CC1` [Example 237, 1-(4-((4-((4-([2,3′-bipyridin]-4-yloxy)-2-fluorophenyl)amino)-7-methoxyquinazolin-6-yl)amino)piperidin-1-yl)prop-2-en-1-one], the GI50 is under 0.03 µM in assay [1]; 0.06 to 0.1 µM in assay [2]; 0.3 to 0.6 µM in assay [3]; 0.03 to 0.06 µM in assay [4]; at least 1 µM in assay [5].

For the compound `C=CC(=O)N1CCC(Nc2cc3c(Nc4ccc(Oc5ccn(-c6cnc(C)c(OC)c6)n5)cc4F)ncnc3cc2OC)CC1` [Example 38, 1-(4-((4-((2-fluoro-4-((1-(5-methoxy-6-methylpyridin-3-yl)-1H-pyrazol-3-yl)oxy)phenyl)amino)-7-methoxyquinazolin-6-yl)amino)piperidin-1-yl)prop-2-en-1-one], the GI50 in assay [1] fell in the range of 0.03 to 0.06 µM; in assay [2], 0.03 to 0.06 µM; in assay [3], 0.1 to 0.3 µM; in assay [4] it was 0.03 to 0.06 µM; in assay [5], 0.03 to 0.06 µM.
